In patent US20220323401A1, “FORMULATIONS OF CANNABINOIDS FOR THE TREATMENT OF ACNE” (priority 2017, published 2022):

What was measured:
[1] = Discoloration of CBD solutions and formulations; assay type: physicochemical; settings: by end of day 1
Excerpt: The CBD2 material dissolved like the CBD1 therefore the CBD2 is CBD without the discoloration properties of CBD1.

[2] = test system: immortalized human sebocytes; settings: cited from earlier work
[3] = in ethanol, reported value; cited from earlier work
rats = settings: 5 mg/kg i.v. once daily for 4 weeks; cited from earlier work
anandamide = settings: rat basophilic leukemia cells; cited from earlier work
[4] = biological target: T1, human vanilloid receptor type 1 (VR1) (Homo sapiens, UniProt Q8NER1); settings: HEK-hVR1 transfected cells; cited from earlier work
T1 construct: host or cells: HEK cells transfected with hVR1 (HEK-hVR1)
T1 sequence (Q8NER1 whole entry): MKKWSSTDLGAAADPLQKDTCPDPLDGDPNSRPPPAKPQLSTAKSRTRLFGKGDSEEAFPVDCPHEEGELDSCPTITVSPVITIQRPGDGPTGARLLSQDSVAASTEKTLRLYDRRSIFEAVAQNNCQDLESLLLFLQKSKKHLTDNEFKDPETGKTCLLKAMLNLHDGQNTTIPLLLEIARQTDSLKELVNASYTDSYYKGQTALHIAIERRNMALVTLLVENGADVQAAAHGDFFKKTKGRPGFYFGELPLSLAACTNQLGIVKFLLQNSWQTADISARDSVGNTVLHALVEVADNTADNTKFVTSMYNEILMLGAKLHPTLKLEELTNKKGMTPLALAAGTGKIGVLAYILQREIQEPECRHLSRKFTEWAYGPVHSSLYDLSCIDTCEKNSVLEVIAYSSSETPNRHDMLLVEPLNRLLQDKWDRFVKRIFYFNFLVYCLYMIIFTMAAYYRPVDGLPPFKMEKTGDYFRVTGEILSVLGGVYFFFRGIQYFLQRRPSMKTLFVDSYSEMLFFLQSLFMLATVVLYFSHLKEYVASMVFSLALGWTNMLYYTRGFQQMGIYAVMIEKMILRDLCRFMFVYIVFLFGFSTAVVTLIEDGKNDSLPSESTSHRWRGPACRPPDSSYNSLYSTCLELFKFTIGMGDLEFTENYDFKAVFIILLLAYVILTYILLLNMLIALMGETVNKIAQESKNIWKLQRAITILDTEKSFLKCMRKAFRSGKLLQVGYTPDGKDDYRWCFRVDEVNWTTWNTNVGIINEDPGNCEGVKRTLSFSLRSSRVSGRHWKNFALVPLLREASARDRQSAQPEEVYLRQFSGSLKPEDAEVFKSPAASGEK

sensitized guinea-pigs = settings: 1 mg/kg i.v.; cited from earlier work
[5] = Initial solubility studies of CBD in solvents; assay type: physicochemical
Method: First, the solubility of cannabidiol (CBD) was assessed. The powder looked granulated under the microscope. […] The conclusions from the solubility studies were that OA and IPA were very good solvents and it was surprising that IPA was so much better than ethanol.
Solubility studies: CBD dissolved at the 10% level in AE and barely 9.5% in IPM. Further exploration was not conducted due to the small amount of drug API available for non-GMP work. CBD is soluble greater than 10% but probably not in excess of 20%, as the time to dissolve additional CBD was taking considerably longer.

| Structure (SMILES) | discoloration of solution [1] | effects on sebocytes [2] | reported solubility of CBD [3] [%] | cardiac inflammation produced by doxorubicin (rats) | effect on anandamide (anandamide) | stimulation of human VR1 [4] | ovalbumin-induced airway obstruction (sensitized guinea-pigs) | solubility of CBD ([5]; in arlamol E (AE), probably not in excess of 20%) | solubility of CBD ([5]; in isopropyl myristate (IPM)) [%] | solubility of CBD ([5]; weight to weight, in ethanol) | solubility of CBD ([5]; weight to weight, in hexamethyldisiloxane (HDS)) | solubility of CBD ([5]; weight to weight, in isopropyl alcohol (IPA)) | solubility of CBD ([5]; weight to weight, in mineral oil) | solubility of CBD ([5]; weight to weight, in oleyl alcohol (OA), did not go higher) | solubility of CBD ([5]; weight to weight, in propylene glycol (PG)) |
| --- | --- | --- | --- | --- | --- | --- | --- | --- | --- | --- | --- | --- | --- | --- | --- |
| C=C(C)[C@@H]1CCC(C)=C[C@H]1c1c(O)cc(CCCCC)cc1O [CBD2] | None of the CBD2 solutions were colored at the end of day 1 | – | – | – | – | – | – | – | – | – | – | – | – | – | – |
| C=C(C)[C@@H]1CCC(C)=C[C@H]1c1c(O)cc(CCCCC)cc1O [CBD1] | colored by the end of the day | – | – | – | – | – | – | – | – | – | – | – | – | – | – |
| C=C(C)C1CCC(C)=CC1c1c(O)cc(CCCCC)cc1O (stereo not shown) [CBD, 2-[3-methyl-6-(1-methylethenyl)-2-cyclohexen-1-yl]-5-pentyl-1,3-benzenediol] | – | lipostatic, anti-proliferative, and anti-inflammatory effects | 3.5 | attenuated cardiac inflammation produced by doxorubicin | inhibit anandamide | maximum effect similar in efficacy to that of capsaicin | attenuated ovalbumin-induced airway obstruction | greater than 10% | ~9.5 | 6-7% | 3-4% | greater than 14% | 3-4% | greater than 8% | 6-7% |
